Data published in paper PMC4259414, “HS-133, a novel fluorescent phosphatidylinositol 3-kinase inhibitor as a potential imaging and anticancer agent for targeted therapy” (Oncotarget, 2014).
Read-outs that look alike come from different tables or passages of the source.

How the values were obtained:
PI3Kα = target: T1, PI3Kα (Homo sapiens, UniProt P42336); experiment: radiometric kinase assay ([γ-33P]-ATP), Reaction Biology Corp.; type: biochemical
T1 construct: purchased Reaction Biology Corp. (Malvern, PA), contract assay service

[1] = system: PI3K/Akt pathway in SkBr3 cells; experiment: Western blotting of PI3K/Akt signaling in SkBr3 cells; type: cell-based, human; conditions: SkBr3, 1–50 μM, 6 h
Protocol: It has been shown that breast tumor cell growth is closely related to the activation of the PI3K/Akt pathway. […] Therefore, we evaluated the effects of HS-133 on the PI3K/Akt pathway in breast cancer cells. The PI3K inhibitory activity of HS-133 was assessed in the SkBr3 cells.
The cells were washed three times with ice-cold PBS before lysis, and were lysed with a buffer containing 1% Triton X-100, 1% Nonidet P-40 (NP-40), as well as protease and phosphatase inhibitor cocktails (GenDEPOT, Barker, TX). Equal amounts of protein were separated by 10% sodium dodecyl sulfate-polyacrylamide gel electrophoresis (SDS-PAGE) and transferred onto the polyvinylidene fluoride (PVDF) membranes (Millipore, Bedford, MA). Immunostaining was performed by incubating the blots with primary antibodies, followed by horseradish peroxidase (HRP)-conjugated secondary antibody and detected with an enhanced chemiluminescence (ECL) plus system (Amersham Biosciences, Piscataway, NJ). The primary mouse antibodies against the following factors were used: p27 (Cell Signaling Technologies, Danvers, MA), cyclin D1, hypoxia-inducible factor-1α (HIF-1α, BD Biosciences, SanJose, CA), VEGF (Novus Biologicals, Littleton, CO) and β-actin (Abcam, Cambridge, MA). […]

[2] = pharmacokinetic study in mouse; type: in vivo; conditions: plasma, ICR mice; for AUC(0-t): read-out: AUC0–24hr; for half-life: read-out: T1/2, λ (converted)
T47D cells = experiment: cell viability MTT assay, T47D; type: cell-based; conditions: Homo sapiens, 48 h, read-out: IC50, cell growth inhibition
Protocol: To determine whether HS-133 can function as a novel anticancer compound, we tested the ability of this compound to inhibit the growth of breast cancer cell lines (SkBr3, T47D, and MCF-7) using an MTT assay. The cells were exposed to various concentrations (0.5–50 μM) of HS-133 for 48 h. As shown in Fig. 3A-C, HS-133 inhibited the growth of all three breast cancer cell lines in a dose-dependent manner.
Cell viability was performed by an MTT assay. Briefly, the SkBr3, T47D, and MCF-7 cells were plated at a density of 1-5 × 10^3 cells/well in a 96-well plate for 48 h. The medium was removed, and the cells were treated with either DMSO as control or various concentrations of HS-133. The final concentration of DMSO in the medium was ≤ 0.1% (v/v). After the cells were incubated for 48 h, 20 μl of MTT solutions (2 mg/ml) was added to each well for another 4 h at 37°C. The formazan crystals that formed were dissolved in DMSO (200 μl/well) via constant shaking for 5 min. The plate was then read on a microplate reader at 540 nm. Three replicate wells were used for each analysis. The median inhibitory concentration (IC50, defined as the drug concentration at which cell growth was inhibited by 50%) was assessed from the dose-response curves.

[3] = tissue distribution, tissue-to-plasma ratio; type: in vivo, BALB/c nude mice bearing SkBr3 xenograft; conditions: BALB/c nude, mouse, PO 10 mg/kg, 30 min post-dose
Source text: Various tissue concentrations, such as the heart, lung, liver, kidney, spleen, brain, and tumor in BALB/c nude mice bearing SkBr3 xenograft are shown in Fig. 9B. The ratios of each tissue-to-plasma (KP value) were 3.26, 4.18, 0.11, 1.99, 3.07, 4.99, and 2.06 for the heart, lung, liver, kidney, spleen, brain, and tumor, respectively. […] Thus, this high concentration level of HS-133 in tumor tissues may be contributed to in vivo efficacy in the SkBr3 xenograft model.
The heart, lung, liver, kidney, brain, spleen, and tumor were collected at 30 min post-dose from 3 different animals at each time point, rinsed with ice-cold saline, weighed and stored at −80°C until analysis. For HS-133 quantification, mouse tissues were homogenized with three times the volume of PBS. The homogenates were extracted by protein precipitation with acetonitrile. LC-MS/MS analysis was conducted as described for the plasma. The homogenate concentrations were converted to tissue concentrations for the calculations of each tissue-to-plasma ratio.

T1 sequence (P42336 whole entry): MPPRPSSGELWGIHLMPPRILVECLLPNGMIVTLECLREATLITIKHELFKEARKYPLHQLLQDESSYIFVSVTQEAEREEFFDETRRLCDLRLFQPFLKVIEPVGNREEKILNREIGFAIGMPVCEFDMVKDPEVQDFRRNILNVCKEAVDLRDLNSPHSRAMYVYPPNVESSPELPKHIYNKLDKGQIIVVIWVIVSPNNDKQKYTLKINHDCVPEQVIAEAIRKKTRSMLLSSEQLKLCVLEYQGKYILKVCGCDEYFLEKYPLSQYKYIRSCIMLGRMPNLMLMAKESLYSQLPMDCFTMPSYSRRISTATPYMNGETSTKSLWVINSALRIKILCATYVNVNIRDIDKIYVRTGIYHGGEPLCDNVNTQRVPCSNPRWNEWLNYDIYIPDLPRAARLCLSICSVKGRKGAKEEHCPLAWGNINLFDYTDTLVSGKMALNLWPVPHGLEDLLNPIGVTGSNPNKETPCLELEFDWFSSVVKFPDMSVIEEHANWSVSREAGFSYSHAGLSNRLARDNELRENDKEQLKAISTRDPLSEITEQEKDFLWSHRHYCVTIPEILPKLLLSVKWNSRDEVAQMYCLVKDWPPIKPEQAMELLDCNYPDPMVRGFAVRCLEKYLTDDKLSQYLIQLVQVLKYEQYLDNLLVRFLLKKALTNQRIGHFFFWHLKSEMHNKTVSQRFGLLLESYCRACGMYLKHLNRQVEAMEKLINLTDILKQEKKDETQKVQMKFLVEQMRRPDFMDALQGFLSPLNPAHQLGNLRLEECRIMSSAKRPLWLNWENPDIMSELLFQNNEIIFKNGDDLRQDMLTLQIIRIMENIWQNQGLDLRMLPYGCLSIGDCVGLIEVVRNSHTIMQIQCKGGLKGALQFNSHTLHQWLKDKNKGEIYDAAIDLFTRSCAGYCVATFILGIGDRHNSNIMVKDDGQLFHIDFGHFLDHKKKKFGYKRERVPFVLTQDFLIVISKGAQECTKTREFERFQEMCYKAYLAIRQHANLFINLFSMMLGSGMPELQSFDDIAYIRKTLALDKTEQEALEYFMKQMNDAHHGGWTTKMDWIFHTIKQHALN
T1 sequence (P27986 whole entry partner): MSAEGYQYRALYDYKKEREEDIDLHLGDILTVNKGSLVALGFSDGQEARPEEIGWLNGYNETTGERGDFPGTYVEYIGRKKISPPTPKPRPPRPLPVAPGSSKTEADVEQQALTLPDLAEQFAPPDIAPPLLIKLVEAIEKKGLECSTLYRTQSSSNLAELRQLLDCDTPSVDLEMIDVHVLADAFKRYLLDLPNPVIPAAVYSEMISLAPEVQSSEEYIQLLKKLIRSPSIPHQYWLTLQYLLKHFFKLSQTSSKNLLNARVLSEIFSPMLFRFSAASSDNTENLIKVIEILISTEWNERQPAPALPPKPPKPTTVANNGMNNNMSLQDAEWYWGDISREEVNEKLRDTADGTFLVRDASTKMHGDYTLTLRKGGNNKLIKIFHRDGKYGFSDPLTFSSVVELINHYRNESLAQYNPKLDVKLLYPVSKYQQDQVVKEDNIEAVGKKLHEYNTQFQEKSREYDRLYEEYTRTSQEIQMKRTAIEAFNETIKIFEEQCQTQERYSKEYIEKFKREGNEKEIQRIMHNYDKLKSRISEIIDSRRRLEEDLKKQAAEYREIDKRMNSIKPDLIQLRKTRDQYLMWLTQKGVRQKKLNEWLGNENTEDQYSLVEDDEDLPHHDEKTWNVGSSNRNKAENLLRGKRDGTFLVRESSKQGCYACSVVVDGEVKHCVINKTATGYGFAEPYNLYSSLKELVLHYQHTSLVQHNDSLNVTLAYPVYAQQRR

EC50 (PI3Kα; Fig. 2A, read-out: EC50 (printed in Fig. 2A), inhibitory activity against PI3Kα in vitro): 992 nM
IC50 (PI3Kα; radiometric kinase assay, read-out: IC50 against PI3Kα): 992 nM
Tmax ([2]; ICR, po, 5 mg/kg, p.o. 5 mg/kg): ~4.8 h
AUC(0-inf) ([2]; iv, i.v. 5 mg/kg): 3410 ng·h/mL
MRT ([2]; iv, i.v. 5 mg/kg): 8.2 ± 0.8 h
clearance ([2]; iv, i.v. 5 mg/kg): 24.7 mL/min/kg
AUC(0-t) ([2]; iv, i.v. 5 mg/kg): 3190 ng·h/mL
half-life ([2]; iv, i.v. 5 mg/kg): 6.4 ± 0.92 h
Vd ([2]; iv, i.v. 5 mg/kg, read-out: Vss): 12 L/kg
bioavailability ([2]; oral, p.o. vs i.v. 5 mg/kg, read-out: F (bioavailability)): 95.6%
AUC(0-inf) ([2]; po, p.o. 5 mg/kg): 3260 ng·h/mL
Cmax ([2]; po, p.o. 5 mg/kg): 236 ± 34 ng/mL
MRT ([2]; po, p.o. 5 mg/kg): 9.5 ± 1.9 h
AUC(0-t) ([2]; po, p.o. 5 mg/kg): 3000 ng·h/mL
half-life ([2]; po, p.o. 5 mg/kg): 6.1 ± 1.4 h
IC50 (T47D cells): 9400 nM
Kp at 0.5 h ([3]; brain, read-out: tissue-to-plasma ratio (KP value), brain): 4.99
Kp at 0.5 h ([3]; heart, read-out: tissue-to-plasma ratio (KP value), heart): 3.26
Kp at 0.5 h ([3]; kidney, read-out: tissue-to-plasma ratio (KP value), kidney): 1.99
Kp at 0.5 h ([3]; liver, read-out: tissue-to-plasma ratio (KP value), liver): 0.11
Kp at 0.5 h ([3]; lung, read-out: tissue-to-plasma ratio (KP value), lung): 4.18
Kp at 0.5 h ([3]; spleen, read-out: tissue-to-plasma ratio (KP value), spleen): 3.07
Kp at 0.5 h ([3]; tumor, read-out: tissue-to-plasma ratio (KP value), tumor): 2.06
Structure (SMILES): CC(=O)Nc1ccc(-c2nc3c(c(=O)n(C)c(=O)n3C)n2-c2cccc(F)c2)cc1 [HS-133, N-(4-(7-(3-Fluorophenyl)-1,3-dimethyl-2,6-dioxo-2,3,6,7-tetrahydro-1H-purin-8-yl)phenyl) acetamide]
phosphorylation of Akt, mTOR, p70S6K and 4E-BP1 [1]: effectively suppressed
